pIC50: −log10 of the molar value. The source made the active and inactive calls. The calls are words filed in the database; no cut-off is given here.
How the values were obtained:
SR [1] = experiment: Antiproliferative activity against human SR cells assessed as inhibition of cell growth incubated for 72 hrs by CCK8 assay; assay type: functional, cell-based
[2] = target: T1, ALK tyrosine kinase receptor (Homo sapiens, UniProt Q9UM73); experiment: Induction of ALK degradation in human SR cells at 100 nM pretreated with proteosome inhibitor MG132 for 4 hrs followed by compound addition and measured after 16 hrs by Western blot analysis; assay type: cell-based
SR [3] = experiment: Antiproliferative activity against human SR cells assessed as inhibition of cell growth at 10 nM preincubated for 5 days followed by compound washout and measured on day 7 and 9 by CCK8 assay; assay type: functional, cell-based; settings: time 5.0 day
EML4-ALK (Homo sapiens) = EML4-ALK (Homo sapiens) (UniProt Q9UM73+Q9HC35); experiment: Induction of EML4-ALK degradation in human […] at 0.1 to 50 nM by Western blot analysis; assay type: cell-based; settings: dose 0.1-50 nM
[4] = tested on: Epidermal growth factor receptor (Homo sapiens), P00533 [L858R,T790M]; experiment: Induction of EGFR L858R/T790M mutant degradation in human […] at 100 nM by Western blot analysis; assay type: cell-based
HEK-293T = experiment: Antiproliferative activity against human 293T cells overexpressing ALK G1202R mutant assessed as cell growth inhibition after 72 hrs; assay type: functional, cell-based
NCI-H1975 = experiment: Antiproliferative activity against human H1975 cells overexpressing EGFR L858R/T790M mutant assessed as cell growth inhibition after 72 hrs; assay type: functional, cell-based; settings: NCI-H1975, 72 h
[5] = target: T1, ALK tyrosine kinase receptor; experiment: Binding affinity to ALK (unknown origin)
Target sequence in this assay (Q9UM73 whole entry): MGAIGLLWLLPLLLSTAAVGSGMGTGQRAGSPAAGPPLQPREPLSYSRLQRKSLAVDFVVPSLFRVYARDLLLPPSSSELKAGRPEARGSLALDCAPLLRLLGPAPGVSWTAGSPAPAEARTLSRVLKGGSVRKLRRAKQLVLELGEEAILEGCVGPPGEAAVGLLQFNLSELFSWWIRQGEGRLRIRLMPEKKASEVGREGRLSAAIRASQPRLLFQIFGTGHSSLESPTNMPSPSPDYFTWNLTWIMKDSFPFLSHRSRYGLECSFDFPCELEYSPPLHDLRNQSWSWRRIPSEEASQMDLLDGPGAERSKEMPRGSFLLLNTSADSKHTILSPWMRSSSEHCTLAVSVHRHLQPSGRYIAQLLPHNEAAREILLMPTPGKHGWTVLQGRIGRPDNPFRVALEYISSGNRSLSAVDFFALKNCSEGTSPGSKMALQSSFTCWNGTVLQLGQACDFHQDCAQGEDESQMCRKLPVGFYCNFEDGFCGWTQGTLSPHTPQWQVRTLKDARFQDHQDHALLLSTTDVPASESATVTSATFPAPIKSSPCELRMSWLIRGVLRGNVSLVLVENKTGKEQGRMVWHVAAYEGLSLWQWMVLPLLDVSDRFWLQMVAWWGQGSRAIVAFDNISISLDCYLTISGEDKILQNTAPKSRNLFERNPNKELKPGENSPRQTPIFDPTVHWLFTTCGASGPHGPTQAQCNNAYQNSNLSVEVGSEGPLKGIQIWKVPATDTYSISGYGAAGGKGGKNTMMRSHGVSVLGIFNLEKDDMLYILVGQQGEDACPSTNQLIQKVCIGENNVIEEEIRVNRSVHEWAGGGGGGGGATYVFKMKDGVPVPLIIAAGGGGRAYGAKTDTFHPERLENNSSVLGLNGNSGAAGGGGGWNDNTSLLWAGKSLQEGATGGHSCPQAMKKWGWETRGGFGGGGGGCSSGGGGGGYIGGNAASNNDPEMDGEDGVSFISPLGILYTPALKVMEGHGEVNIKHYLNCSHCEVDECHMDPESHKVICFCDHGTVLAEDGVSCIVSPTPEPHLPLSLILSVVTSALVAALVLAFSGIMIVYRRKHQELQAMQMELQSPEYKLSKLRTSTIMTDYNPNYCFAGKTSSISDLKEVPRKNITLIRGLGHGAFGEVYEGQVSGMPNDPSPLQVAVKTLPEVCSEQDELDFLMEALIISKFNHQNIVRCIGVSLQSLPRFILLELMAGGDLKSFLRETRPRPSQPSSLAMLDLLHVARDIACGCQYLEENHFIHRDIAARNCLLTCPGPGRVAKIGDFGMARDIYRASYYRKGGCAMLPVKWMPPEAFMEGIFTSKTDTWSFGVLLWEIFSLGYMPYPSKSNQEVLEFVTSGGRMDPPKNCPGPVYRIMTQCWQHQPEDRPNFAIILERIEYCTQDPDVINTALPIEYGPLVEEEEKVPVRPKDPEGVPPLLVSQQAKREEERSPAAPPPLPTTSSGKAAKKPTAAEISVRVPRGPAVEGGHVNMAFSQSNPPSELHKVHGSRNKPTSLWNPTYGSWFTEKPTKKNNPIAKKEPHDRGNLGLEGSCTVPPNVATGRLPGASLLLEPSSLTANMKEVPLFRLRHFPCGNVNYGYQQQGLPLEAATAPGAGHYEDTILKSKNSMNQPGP

[6] = target: ALK tyrosine kinase receptor (Homo sapiens, UniProt Q9UM73, G1202R); experiment: Binding affinity to ALK G1202R mutant (unknown origin)
Calu-1 [7] = experiment: Induction of apoptosis in human Calu-1 cells at 100 nM after 72 hrs; assay type: functional, cell-based
NCI-H2228 = experiment: Down regulation of FAK in human NCI-H2228 cells at 1 to 1000 nM after 16 hrs by Western blot analysis; assay type: functional, cell-based; settings: dose 1-1000 nM
[8] = target: Protein-tyrosine kinase 2-beta (Homo sapiens) (UniProt Q14289); experiment: Induction of PYK2 degradation in human SR cells at 1 nM after 16 hrs by Western blot analysis; assay type: cell-based
[9] = target: Focal adhesion kinase 1 (Homo sapiens) (UniProt Q05397); experiment: Induction of FAK degradation in human MDA-MB-231 cells at 10 nM after 1 to 2 hrs by Western blot analysis; assay type: cell-based; settings: time 1-2 hrs
Calu-1 [10] = experiment: Down regulation of cyclin D1 protein expression in human Calu-1 cells at 1 to 500 nM after 48 hrs by Western blot analysis; assay type: functional, cell-based; settings: dose 1-500 nM
MDA-MB-231 = experiment: Down regulation of C-myc protein expression in human MDA-MB-231 cells at 1 to 500 nM after 48 hrs by Western blot analysis; assay type: functional, cell-based; settings: dose 1-500 nM
[11] = tested on: Leucine-rich repeat serine/threonine-protein kinase 2 (Homo sapiens), Q5S007 [G2019S]; experiment: Binding affinity to human partial length LRRK2 G2019S mutant (H970 to E2527 residues) expressed in mammalian expression system assessed as residual binding level at 100 nM by Kinomescan method relative to control
[12] = tested on: Receptor-type tyrosine-protein kinase FLT3 (Homo sapiens), P36888 [UNDEFINED MUTATION]; experiment: Binding affinity to human partial length FLT3 ITD/D835V double mutant expressed in bacterial expression system assessed as residual binding level at 100 nM by Kinomescan method relative to control
[13] = target: Cyclin-G-associated kinase (Homo sapiens) (UniProt O14976); experiment: Binding affinity to wild-type human partial length GAK (G13 to Y338 residues) expressed in bacterial expression system assessed as residual binding level at 100 nM by Kinomescan method relative to control
[14] = target: Serine/threonine-protein kinase 33 (Homo sapiens) (UniProt Q9BYT3); experiment: Binding affinity to wild-type human full length STK33 (M1 to L514 residues) expressed in bacterial expression system assessed as residual binding level at 100 nM by Kinomescan method relative to control
[15] = tested on: Receptor-type tyrosine-protein kinase FLT3 (Homo sapiens), P36888 [UNDEFINED MUTATION]; experiment: Binding affinity to human partial length FLT3 ITD mutant expressed in bacterial expression system assessed as residual binding level at 100 nM by Kinomescan method relative to control
[16] = tested on: Epidermal growth factor receptor (Homo sapiens), P00533 [L858R,T790M]; experiment: Binding affinity to human partial length EGFR L858R/T790M double mutant (R669 to V1011 residues) expressed in mammalian expression system assessed as residual binding level at 100 nM by Kinomescan method relative to control
[17] = target: Non-receptor tyrosine-protein kinase TNK1 (Homo sapiens) (UniProt Q13470); experiment: Binding affinity to wild-type human full length TNK1 (M1 to P661 residues) expressed in bacterial expression system assessed as residual binding level at 100 nM by Kinomescan method relative to control
[18] = target: Tyrosine-protein kinase Fer (Homo sapiens) (UniProt P16591); experiment: Binding affinity to wild-type human partial length FER (S542 to T822 residues) expressed in bacterial expression system assessed as residual binding level at 100 nM by Kinomescan method relative to control
[19] = tested on: Receptor-type tyrosine-protein kinase FLT3 (Homo sapiens), P36888 [K663Q]; experiment: Binding affinity to human partial length FLT3 K663Q mutant (V592 to Y969 residues) expressed in bacterial expression system assessed as residual binding level at 100 nM by Kinomescan method relative to control
[20] = tested on: Epidermal growth factor receptor (Homo sapiens), P00533 [T790M]; experiment: Binding affinity to human partial length EGFR T790M mutant (R669 to G1022 residues) expressed in mammalian expression system assessed as residual binding level at 100 nM by Kinomescan method relative to control
[21] = tested on: ALK tyrosine kinase receptor (Homo sapiens), Q9UM73 [L1196M]; experiment: Binding affinity to wild-type human partial length ALK L1196M mutant (I1088 to E1409 residues) expressed in mammalian expression system assessed as residual binding level at 100 nM by Kinomescan method relative to control
[22] = tested on: Epidermal growth factor receptor (Homo sapiens), P00533 [UNDEFINED MUTATION]; experiment: Binding affinity to human partial length EGFR L747-E749del/A750P mutant expressed in bacterial expression system assessed as residual binding level at 100 nM by Kinomescan method relative to control
[23] = target: NUAK family SNF1-like kinase 2 (Homo sapiens) (UniProt Q9H093); experiment: Binding affinity to wild-type human partial length SNARK (P22 to A333 residues) expressed in mammalian expression system assessed as residual binding level at 100 nM by Kinomescan method relative to control
[24] = Metabolic stability in human liver microsomes preincubated for 10 mins followed by NADPH regenerating system addition and measured after 10 mins by LC-MS/MS analysis; assay type: ADME, Microsome; settings: time 20 min, read-out: Stability
[25] = Metabolic stability in CD-1 mouse liver microsomes preincubated for 10 mins followed by NADPH regenerating system addition and measured after 10 mins by LC-MS/MS analysis; assay type: ADME, Microsome; settings: time 20 min, read-out: Stability
[26] = Oral bioavailability in […] at 10 mg/kg measured upto 24 hrs; assay type: ADME, organism-based; settings: in vivo
[27] = AUC in […] at 10 mg/kg, po or 2 mg/kg, iv measured upto 24 hrs; assay type: ADME, organism-based; parameters: dose 10 mg/kg, time <=24; settings: in vivo

Chain of ALK tyrosine kinase receptor (Homo sapiens), Q9UM73 [L1196M] (Q9UM73 whole entry L1196M, looked up, the tested form may be a part): as the sequence (Q9UM73 whole entry) above, with L1196M counted along it
Chain of Protein-tyrosine kinase 2-beta (Homo sapiens) (Q14289 whole entry, looked up): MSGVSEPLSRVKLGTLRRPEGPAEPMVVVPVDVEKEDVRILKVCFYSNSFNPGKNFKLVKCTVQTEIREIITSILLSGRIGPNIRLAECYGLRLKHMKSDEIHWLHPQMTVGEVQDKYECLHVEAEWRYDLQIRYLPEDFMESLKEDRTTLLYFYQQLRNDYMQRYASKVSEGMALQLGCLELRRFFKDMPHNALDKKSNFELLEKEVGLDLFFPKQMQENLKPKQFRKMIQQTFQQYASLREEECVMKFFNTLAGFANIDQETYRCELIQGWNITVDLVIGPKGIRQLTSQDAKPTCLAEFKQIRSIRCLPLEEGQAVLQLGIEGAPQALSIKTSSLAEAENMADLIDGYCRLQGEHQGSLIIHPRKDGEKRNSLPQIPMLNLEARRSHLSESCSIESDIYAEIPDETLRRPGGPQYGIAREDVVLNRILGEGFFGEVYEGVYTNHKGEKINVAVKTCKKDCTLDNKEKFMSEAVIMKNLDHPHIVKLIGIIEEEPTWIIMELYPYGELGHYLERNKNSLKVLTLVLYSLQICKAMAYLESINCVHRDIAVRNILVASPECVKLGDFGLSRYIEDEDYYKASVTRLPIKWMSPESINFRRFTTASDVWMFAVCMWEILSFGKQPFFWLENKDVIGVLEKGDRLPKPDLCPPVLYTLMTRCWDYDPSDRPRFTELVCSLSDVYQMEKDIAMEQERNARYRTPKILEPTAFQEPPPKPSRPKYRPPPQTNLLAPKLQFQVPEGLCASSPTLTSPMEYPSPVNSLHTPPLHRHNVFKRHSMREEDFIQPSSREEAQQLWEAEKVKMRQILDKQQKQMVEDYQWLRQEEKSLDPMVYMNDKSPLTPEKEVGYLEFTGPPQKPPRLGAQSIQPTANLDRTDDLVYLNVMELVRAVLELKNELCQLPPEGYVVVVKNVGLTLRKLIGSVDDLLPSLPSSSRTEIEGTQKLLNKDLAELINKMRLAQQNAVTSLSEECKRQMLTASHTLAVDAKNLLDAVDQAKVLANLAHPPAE
Chain of Tyrosine-protein kinase Fer (Homo sapiens) (P16591 whole entry, looked up, the tested form may be a part): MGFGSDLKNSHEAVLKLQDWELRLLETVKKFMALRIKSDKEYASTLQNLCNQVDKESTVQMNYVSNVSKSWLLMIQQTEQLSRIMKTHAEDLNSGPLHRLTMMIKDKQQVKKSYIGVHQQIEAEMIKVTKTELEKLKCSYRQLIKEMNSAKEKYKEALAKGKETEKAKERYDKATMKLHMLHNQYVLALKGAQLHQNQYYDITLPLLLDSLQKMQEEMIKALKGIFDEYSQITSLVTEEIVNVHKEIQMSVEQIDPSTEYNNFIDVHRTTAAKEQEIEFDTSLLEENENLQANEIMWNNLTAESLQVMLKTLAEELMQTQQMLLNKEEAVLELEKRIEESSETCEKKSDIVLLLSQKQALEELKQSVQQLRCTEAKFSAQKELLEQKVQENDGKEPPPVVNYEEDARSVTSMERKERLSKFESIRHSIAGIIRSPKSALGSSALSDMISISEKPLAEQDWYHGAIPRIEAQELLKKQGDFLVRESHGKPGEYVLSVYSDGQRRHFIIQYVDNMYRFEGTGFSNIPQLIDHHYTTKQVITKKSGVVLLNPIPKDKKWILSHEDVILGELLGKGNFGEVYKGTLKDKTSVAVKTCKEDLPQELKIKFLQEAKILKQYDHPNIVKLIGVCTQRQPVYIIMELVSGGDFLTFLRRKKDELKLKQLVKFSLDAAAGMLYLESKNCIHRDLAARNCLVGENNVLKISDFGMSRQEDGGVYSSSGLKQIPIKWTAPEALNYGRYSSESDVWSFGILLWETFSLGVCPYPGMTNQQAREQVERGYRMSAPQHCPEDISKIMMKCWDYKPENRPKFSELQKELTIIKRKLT
Chain of Serine/threonine-protein kinase 33 (Homo sapiens) (Q9BYT3 whole entry, looked up, the tested form may be a part): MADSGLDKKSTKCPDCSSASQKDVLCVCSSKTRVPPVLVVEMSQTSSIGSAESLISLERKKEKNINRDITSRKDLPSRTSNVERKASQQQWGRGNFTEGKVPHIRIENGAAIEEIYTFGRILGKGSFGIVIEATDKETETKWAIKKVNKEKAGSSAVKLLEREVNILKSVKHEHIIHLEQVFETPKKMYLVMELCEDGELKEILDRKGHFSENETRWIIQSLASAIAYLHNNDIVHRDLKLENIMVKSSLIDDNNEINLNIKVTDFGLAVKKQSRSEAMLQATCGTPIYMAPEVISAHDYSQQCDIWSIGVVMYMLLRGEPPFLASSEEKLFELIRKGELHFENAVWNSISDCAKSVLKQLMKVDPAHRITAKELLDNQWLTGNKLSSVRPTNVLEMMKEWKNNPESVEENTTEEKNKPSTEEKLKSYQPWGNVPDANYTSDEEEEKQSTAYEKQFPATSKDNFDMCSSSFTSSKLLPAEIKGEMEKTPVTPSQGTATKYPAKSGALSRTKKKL
Chain of Non-receptor tyrosine-protein kinase TNK1 (Homo sapiens) (Q13470 whole entry, the tested form may be a part): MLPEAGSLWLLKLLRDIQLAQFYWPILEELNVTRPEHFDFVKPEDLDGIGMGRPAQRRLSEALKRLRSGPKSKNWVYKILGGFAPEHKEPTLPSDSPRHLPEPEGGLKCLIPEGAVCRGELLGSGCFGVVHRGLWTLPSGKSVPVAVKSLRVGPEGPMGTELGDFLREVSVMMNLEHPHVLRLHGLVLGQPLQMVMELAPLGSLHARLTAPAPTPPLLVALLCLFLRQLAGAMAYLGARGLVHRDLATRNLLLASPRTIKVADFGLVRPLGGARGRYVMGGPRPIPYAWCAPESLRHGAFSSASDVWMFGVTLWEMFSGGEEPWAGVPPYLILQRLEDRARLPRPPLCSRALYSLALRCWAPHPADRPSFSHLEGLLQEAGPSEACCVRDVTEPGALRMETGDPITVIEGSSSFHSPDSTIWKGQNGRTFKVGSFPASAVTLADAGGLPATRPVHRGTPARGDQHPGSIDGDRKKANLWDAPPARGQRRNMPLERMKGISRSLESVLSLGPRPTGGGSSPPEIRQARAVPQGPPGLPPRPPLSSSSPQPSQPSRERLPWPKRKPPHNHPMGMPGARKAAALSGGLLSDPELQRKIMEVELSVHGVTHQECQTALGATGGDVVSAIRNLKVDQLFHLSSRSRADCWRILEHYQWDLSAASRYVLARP

## COc1cc(N2CCC(N3CCN(C(=O)CNc4cccc5c4C(=O)N(C4CCC(=O)NC4=O)C5=O)CC3)CC2)ccc1Nc1ncc(Cl)c(Nc2ccccc2P(C)(C)=O)n1 (configuration not stated)
SR [1]
  pIC50: 8.70
[2]
  Activity: inactive
SR [3]
  Activity: Active
EML4-ALK (Homo sapiens)
  Activity: Active
[4]
  Activity: Active
HEK-293T
  pIC50: 7.68
NCI-H1975
  pIC50: 7.38
[5]
  pIC50: 8.60
[6]
  pIC50: 8.18
Calu-1 [7]
  Activity: inactive
NCI-H2228
  Activity: Active
[8]
  Activity: Active
[9]
  Activity: Active
Calu-1 [10]
  Activity: Active
MDA-MB-231
  Activity: Active
[11]
  Activity: 0%
[12]
  Activity: 1%
[13]
  Activity: 1.4%
[14]
  Activity: 2.3%
[15]
  Activity: 3%
[16]
  Activity: 3.5%
[17]
  Activity: 3.8%
[18]
  Activity: 4.1%
[19]
  Activity: 4.3%
[20]
  Activity: 5.7%
[21]
  Activity: 6.5%
[22]
  Activity: 6.9%
[23]
  Activity: 8.3%
[24]
  microsomal CLint: < 9.6 µL/min/mg
[25]
  microsomal CLint: 16.7 µL/min/mg
[26]
  bioavailability: 18.4%
[27]
  AUC at 24 h: 1.56 µg·h/mL

Reference: ChEMBL document CHEMBL5034001 (J Med Chem, 2021)
